Source: patent publication US20120196858A1, “METHOD OF PROMOTING APOPTOSIS AND INHIBITING METASTASIS” (Poniard Pharmaceuticals ,Inc., priority 2009, published 2012)
Read-outs that look alike come from different tables or passages of the source.

Legend:
[1] = test system: 4T1 tumors; test: Subcutaneous mCherry 4T1 tumor growth in BALB/c mice; assay type: in vivo
Description: Detection of apoptosis in tumors: Fresh tumors were snap-frozen in Optimal Cutting Temperature (OCT) compound (Tissue Tek), thin sectioned ([…]) using a cryomicrotome (Leica 3050S) and mounted onto glass slides. Sections were fixed with 3% paraformaldehyde, permeabilized in PBS containing 0.1% Triton for 3 min, and blocked with 8% goat serum in PBS for 60 min at RT. For activated caspase-3 detection, sections were incubated with cleaved caspase-3 antibody (1:200 diluted in 2% goat serum in PBS) for 18 h at 4° C., washed with PBS, and incubated with fluorescein isothiocyanate conjugated anti-rabbit and TOPRO-3 (blue) for DNA detection. Sections were imaged on a Nikon Eclipse C1 confocal microscope with a 1.4 NA 60× oil objective, with a 30 μm pinhole setting, and analyzed using EZ-C1 3.50 software (Nikon). Tumor apoptosis was also measured by terminal deoxynucleotidyl transferase dUTP nick end labeling (TUNEL) staining using the tetramethylrhodamine (TMR) kit as per the manufacturer's instructions (Roche). Bright field and fluorescent images of whole tumor sections were obtained using Zeiss M2-Bio Stereo microscope equipped with INFINITY1-3C: digital color camera and a 4× objective.
Mouse tumor studies: Six to eight week old female C57B16 and BALB/c mice were obtained from Harlan Laboratories (Indianapolis, Ind.) and housed in pathogen-free conditions, according to the guidelines of the Association for the Assessment and Accreditation for Laboratory Animal Care, International. All in vivo studies were carried out under an approved institutional experimental animal care and use protocol. Growing tumor cells were harvested by limited trypsinization, washed in PBS, and counted using a ViCell XR (Beckman) prior to injection. Cell viability as measured by trypan blue exclusion was >95%. For subcutaneous tumor growth, 1×10^6 mCherry-labeled 4T1 cells in 100 μl PBS were injected into the hindflank of Balb/C mice. […] Control animals received PEG400:PBS injections and at 13 days, tumors were imaged in situ using an Olympus OV100 Intravital Fluorescence Molecular Imaging System, tumors were excised and weighed, half was frozen in OCT, and half was solubilized in protein lysis buffer for FAK phosphorylation analyses. For ID8 ovarian carcinoma tumor growth, 0.8 mL of 1×10^7 ID8 cells in PBS was intraperitoneal injected into C57B16 mice. […] Administration continued ad libitum for 30 days after which mice were euthanized, ascites fluid collected, cells obtained by centrifugation (2000 rpm for 5 min), cell volume measured by pipet, and then solubilized in protein lysis buffer for immunoblotting analyses.

[2] = test system: FAK and p130Cas phosphorylation in 4T1 tumors; test: Pharmacodynamic (PD) evaluation in subcutaneous 4T1 tumors, single i.p. injection; assay type: in vivo, Balb/c mice; settings: for maximal plasma levels: single injection
[3] = as above; assay type: in vivo, Balb/c mice; settings: Balb/c, mouse, intraperitoneal, 100 mg/kg i.p., 12 h
[4] = test system: 4T1 cells; test: 3D spheroid size assay; assay type: cell-based, murine; settings: 72 h
Description: Anchorage-dependent, spheroid, and soft agar cell growth assays: Cells (2×10^5) were plated per 35 mm well under adherent (tissue culture-treated) and non-adherent conditions (poly-HEMA-coated) in 6-well plates (Costar) in growth media. Between 24 and 168 h, all cells were collected, a single cell suspension was prepared by limited trypsin-EDTA treatment, and viable cells were enumerated by trypan blue staining and counting (ViCell XR, Beckman). For spheroid area determination, cells were imaged after 72 h in phase contrast using an Olympus IX51 microscope. Area was calculated using Image J software (version 1.43). For soft agar assays, 48-well plates were coated with a 1:4 mix of 2% agar (EM Science) in 0.2 ml growth media (bottom layer). 5×10^4 cells were plated per well (in triplicate) in a mixture of 0.3% agar in 0.2 ml growth media (top layer). […] After 10 days, colonies were imaged in phase contrast, enumerated by counting 9 fields (3 fields per well), and total area determined using Image J. For all analyses, experimental points were performed in triplicate and were experiments were repeated at least two times.

[5] = biological target: T1, Aurora-A (Homo sapiens, UniProt O14965); test: Millipore KinaseProfiler selectivity screen; assay type: biochemical; settings: read-out: kinase inhibition
T1 construct: purchased Millipore (KinaseProfiler service)
T1 sequence (O14965 whole entry): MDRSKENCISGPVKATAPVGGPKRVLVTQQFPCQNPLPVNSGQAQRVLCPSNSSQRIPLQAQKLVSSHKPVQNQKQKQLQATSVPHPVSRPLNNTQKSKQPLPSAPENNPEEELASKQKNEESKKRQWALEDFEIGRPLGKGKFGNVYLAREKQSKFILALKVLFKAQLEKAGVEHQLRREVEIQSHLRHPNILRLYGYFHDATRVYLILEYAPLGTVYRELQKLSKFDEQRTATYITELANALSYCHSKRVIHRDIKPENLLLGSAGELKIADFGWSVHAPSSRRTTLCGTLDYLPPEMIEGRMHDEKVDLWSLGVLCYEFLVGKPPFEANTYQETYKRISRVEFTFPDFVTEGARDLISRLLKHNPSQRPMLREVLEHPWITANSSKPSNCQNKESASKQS
Description: (§1) Baculovirus FAK catalytic domain and in vitro kinase assays: The FAK catalytic domain region (411-686) was generated by polymerase chain reaction using the primers 5′-[…]-3′ 5′-[…]-3′, cloned into pGEX4T as a fusion with GST, and moved into the pAcG2T baculovirus expression vector (Pharmingen, Baculogold). Virus clones were identified by plaque assays and amplified. For protein expression, SF9 cells were transduced at a multiplicity of infection of 2-5 pfu/cell and cultured at 27° C. for 48 h. Glutathione agarose affinity chromatography were used to purify GST-FAK (411-686) followed by size fractionation using hiload 16/60 Superdex chromatography (GE Healthcare). Protein was concentrated and stored frozen in 50 mM Tris pH 8.0, 150 mM NaCl, 1 mM Na orthovanadate, 0.5 mM EDTA, 0.5 mM EGTA, 0.1% β-mercaptoethanol, and 20% glycerol. Purity was estimated at >90% by SDS-PAGE. GST-FAK in vitro kinase activity was measured and compared to His-tagged FAK 411-686 (Millipore) using the K-LISA screening kit (Calbiochem) and poly(Glu:Tyr) (4:1) copolymer (P0275, Sigma) as a substrate immobilized on microtiter plates. […] Serial diluted compounds at ½-Log concentrations (starting at 1 μM) were tested in triplicate. Substrate phosphorylation was measured using horseradish peroxidase-conjugated anti-pTyr antibodies (PY20, Santa Cruz Biotechnology) with spetrophotometic color quantitation. IC50 values were determined using the Hill-Slope Model. Kinase selectivity profiling was performed by using the KinaseProfiler service (Millipore).

[6] = biological target: T2, CDK2 (cyclin-dependent kinase 2)/cyclin A (Homo sapiens, UniProt P24941); test: Millipore KinaseProfiler selectivity screen; assay type: biochemical
T2 construct: purchased Millipore (KinaseProfiler service)
Description: as §1

[7] = biological target: T3, Lck (lymphocyte-specific protein tyrosine kinase) (Homo sapiens, UniProt P06239); test: Millipore KinaseProfiler selectivity screen; assay type: biochemical
T3 construct: purchased Millipore (KinaseProfiler service)
T3 sequence (P06239 whole entry): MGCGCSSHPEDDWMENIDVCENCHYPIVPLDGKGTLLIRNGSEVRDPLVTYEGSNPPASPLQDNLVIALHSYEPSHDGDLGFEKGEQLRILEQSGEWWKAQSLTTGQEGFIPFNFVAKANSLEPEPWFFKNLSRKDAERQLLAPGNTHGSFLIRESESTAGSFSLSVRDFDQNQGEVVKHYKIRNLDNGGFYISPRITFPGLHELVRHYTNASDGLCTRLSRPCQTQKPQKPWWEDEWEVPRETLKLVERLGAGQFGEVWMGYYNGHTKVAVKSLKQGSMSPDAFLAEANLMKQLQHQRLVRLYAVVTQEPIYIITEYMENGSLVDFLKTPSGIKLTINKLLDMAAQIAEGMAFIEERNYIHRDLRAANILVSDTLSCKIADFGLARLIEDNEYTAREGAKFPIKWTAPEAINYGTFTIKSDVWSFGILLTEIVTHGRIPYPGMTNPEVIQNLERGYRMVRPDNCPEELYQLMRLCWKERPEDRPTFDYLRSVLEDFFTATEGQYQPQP
Description: as §1

[8] = biological target: T4, FAK (Homo sapiens, UniProt Q05397); test: Millipore KinaseProfiler selectivity screen; assay type: biochemical
T4 construct: purchased Millipore (KinaseProfiler service)
T4 sequence (Q05397 whole entry): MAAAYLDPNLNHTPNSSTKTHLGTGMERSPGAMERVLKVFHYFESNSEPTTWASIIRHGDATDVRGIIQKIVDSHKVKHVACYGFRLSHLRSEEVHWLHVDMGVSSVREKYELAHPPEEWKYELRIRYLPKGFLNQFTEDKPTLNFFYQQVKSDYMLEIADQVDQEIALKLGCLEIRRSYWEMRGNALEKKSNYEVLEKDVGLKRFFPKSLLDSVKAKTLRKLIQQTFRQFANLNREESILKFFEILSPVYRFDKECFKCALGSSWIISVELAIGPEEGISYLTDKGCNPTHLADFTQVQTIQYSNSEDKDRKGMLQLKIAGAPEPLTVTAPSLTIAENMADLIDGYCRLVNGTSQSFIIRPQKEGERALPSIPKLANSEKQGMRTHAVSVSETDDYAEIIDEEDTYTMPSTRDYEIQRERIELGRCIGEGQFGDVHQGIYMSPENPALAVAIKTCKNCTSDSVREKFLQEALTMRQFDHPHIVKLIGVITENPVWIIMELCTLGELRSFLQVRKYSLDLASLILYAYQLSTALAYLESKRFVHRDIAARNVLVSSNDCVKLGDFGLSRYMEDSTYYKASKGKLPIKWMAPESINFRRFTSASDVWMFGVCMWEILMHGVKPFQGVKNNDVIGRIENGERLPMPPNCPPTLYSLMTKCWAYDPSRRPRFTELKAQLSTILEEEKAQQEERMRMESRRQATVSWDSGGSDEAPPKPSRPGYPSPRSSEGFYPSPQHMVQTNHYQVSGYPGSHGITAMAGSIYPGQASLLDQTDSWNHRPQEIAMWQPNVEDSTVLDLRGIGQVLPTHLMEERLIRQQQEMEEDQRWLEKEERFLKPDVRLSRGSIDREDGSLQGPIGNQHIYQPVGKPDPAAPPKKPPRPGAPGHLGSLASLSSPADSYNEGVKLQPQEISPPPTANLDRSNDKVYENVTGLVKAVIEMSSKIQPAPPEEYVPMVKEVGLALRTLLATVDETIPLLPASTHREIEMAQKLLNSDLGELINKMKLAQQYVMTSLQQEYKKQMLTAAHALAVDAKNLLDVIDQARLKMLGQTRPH
Description: as §1

CNC(=O)c1ccccc1Nc1cc(Nc2ccc(N3CCOCC3)cc2OC)ncc1C(F)(F)F [PND-1186]
final tumor weight ([1]; 30 mg/kg b.i.d., 5 days): slightly reduced final tumor weight but was not significantly different
cleaved caspase-3 staining in tumors ([1]; 100 mg/kg): elevated cleaved caspase-3 staining
reduction of final tumor weight ([1]; 100 mg/kg b.i.d., 5 days): 2 fold
tumor TUNEL staining ([1]; 30 and 100 mg/kg b.i.d., vs vehicle): significantly increased tumor TUNEL staining
duration of tumor FAK pY397 inhibition ([2]; 30 mg/kg i.p.): 3 to 6 h
maximal PND-1186 in tumors ([2]; 30 mg/kg i.p.): 0.75 µg/g
time to maximal PND-1186 in tumors ([2]; 30 mg/kg i.p.): ≤ 1 h
time to maximal plasma levels ([2]; 30 mg/kg i.p.): ≤ 15 min
plasma levels at 12 h ([2]; 30 mg/kg i.p., 12 h): 0.1 µM
tumor FAK pY397 phosphorylation at 12 h ([2]; 30 mg/kg i.p., 12 h): not significantly inhibited
tumor PND-1186 levels by 12 h ([2]; 30 mg/kg i.p., 12 h): 0.04 µg/g
maximal plasma levels ([2]; 30 mg/kg i.p.): 35 µM
time to maximal PND-1186 in tumors ([2]; 100 mg/kg i.p.): ≤ 1 h
time to maximal plasma levels ([2]; 100 mg/kg i.p.): ≤ 30 min
plasma levels at 12 h ([2]; 100 mg/kg i.p., 12 h): 1.1 µM
p130Cas Tyr-410 phosphorylation (pY410Cas) in tumors ([2]; 100 mg/kg i.p., by 3 h): significantly reduced p130Cas Tyr-410 phosphorylation
sustained inhibition of tumor FAK Tyr-397 phosphorylation ([2]; 100 mg/kg i.p., for 12 h): > 60%
maximal plasma levels ([2]; 100 mg/kg i.p.): 117 µM
maximal PND-1186 in tumors ([2]; 100 mg/kg i.p., maintained up to 12 h): 16.1 µg/g
concentration at 12 h ([3]; plasma, read-out: average concentration in plasma at 12 h): 15.1 µM
concentration at 12 h ([3]; tumor, read-out: average concentration in tumors at 12 h): 10400 ng/g
reduction in average spheroid size ([4]; 0.1 μM): ~3 fold
concentration of maximal effect on spheroid size [4]: 0.2 µM
inhibition at 1 µM [5]: > 50%
inhibition at 1 µM [6]: > 50%
inhibition at 1 µM [7]: > 50%
kinase inhibition specificity ([8]; 0.1 μM PND-1186): displayed specificity for FAK as well as Flt3
remaining kinase activity ([8]; 1 μM PND-1186): negligible activity
